Literature values as cited in patent publication US11160791B2, “Dexmedetomidine injection premix formulation in ready to use (RTU) bags” (Medefil, Inc., priority 2018, dated 2021).

For Cc1cccc([C@H](C)c2cnc[nH]2)c1C [dexmedetomidine], the “drug loss with a buffer” value (plastic containers, buffer system in the formulation, same prior patents) is given as about 10%, the “dexmedetomidine loss when sodium chloride is used” value (plastic containers, even with buffers present, U.S. Pat. No. 9,649,296) is given as “at least 10%” and the “loss of the dexmedetomidine from the liquid composition” value (plastic materials, U.S. Pat. Nos. 8,242,158, 8,648,106, 8,436,033, 8,338,470) is given as “up to 20%”.
